# Assay results taken from ChEMBL document CHEMBL4229437, “Polyamine-containing etoposide derivatives as poisons of human type II topoisomerases: Differential effects on topoisomerase IIα and IIβ” (Bioorg Med Chem Lett, 2018).
# Active and inactive are the calls of the source. The rule behind the calls is not given here.
# How the values were obtained:
# [1] = target: DNA topoisomerase 2-beta (Homo sapiens) (UniProt Q02880); experiment: (§1) Poison activity at recombinant human topoisomerase-2beta expressed in Saccharomyces cerevisiae assessed as stabilization of DNA-enzyme cleavage complex at 25 uM using supercoiled pBR322 DNA as substrate incubated for 6 mins measured after 30 mins by ethidium bromide staining based agarose gel electrophoresis method
# [2] = target: DNA topoisomerase 2-beta (Homo sapiens) (UniProt Q02880); experiment: Inhibition of recombinant human topoisomerase-2beta expressed in Saccharomyces cerevisiae assessed as stabilization of DNA-enzyme cleavage complex at 25 uM incubated for 6 mins followed by incubation in drug-free buffer by agarose gel electrophoresis method
# [3] = target: DNA topoisomerase 2-beta (Homo sapiens) (UniProt Q02880); experiment: (§2) Inhibition of recombinant human topoisomerase-2beta expressed in Saccharomyces cerevisiae assessed as increase in double-stranded DNA cleavage at 25 uM using supercoiled pBR322 DNA as substrate incubated for 6 mins measured after 30 mins by ethidium bromide staining based agarose gel electrophoresis method relative to etoposide
# [4] = target: DNA topoisomerase 2-alpha (Homo sapiens) (UniProt P11388); experiment: Poison activity at recombinant human topoisomerase-2alpha expressed in Saccharomyces cerevisiae assessed as inhibition of DNA religation using single-stranded DNA at 25 uM incubated for 6 mins by agarose gel electrophoresis method
# [5] = target: DNA topoisomerase 2-beta (Homo sapiens) (UniProt Q02880); experiment: Poison activity at recombinant human topoisomerase-2beta expressed in Saccharomyces cerevisiae assessed as inhibition of DNA religation using single-stranded DNA at 25 uM incubated for 6 mins by agarose gel electrophoresis method
# [6] = target: DNA topoisomerase 2-beta (Homo sapiens) (UniProt Q02880); experiment: as §2, with “total” for “double-stranded”
# [7] = target: DNA topoisomerase 2-alpha (Homo sapiens) (UniProt P11388); experiment: Inhibition of recombinant human topoisomerase-2alpha expressed in Saccharomyces cerevisiae assessed as stabilization of DNA-enzyme cleavage complex at 25 uM incubated for […] followed by incubation in drug-free buffer by agarose gel electrophoresis method
# [8] = target: DNA topoisomerase 2-alpha (Homo sapiens) (UniProt P11388); experiment: as §1, with “topoisomerase-2alpha” for “topoisomerase-2beta”
# [9] = target: DNA topoisomerase 2-alpha (Homo sapiens) (UniProt P11388); experiment: as §2, with “topoisomerase-2alpha” for “topoisomerase-2beta”, “single-stranded” for “double-stranded”
# [10] = target: DNA topoisomerase 2-beta (Homo sapiens) (UniProt Q02880); experiment: as §2, with “single-stranded” for “double-stranded”
# [11] = target: DNA topoisomerase 2-alpha (Homo sapiens) (UniProt P11388); experiment: as §2, with “topoisomerase-2alpha” for “topoisomerase-2beta”, “total” for “double-stranded”
# [12] = target: DNA topoisomerase 2-beta (Homo sapiens) (UniProt Q02880); experiment: as §1, with “by measuring concentration required to generate 10% double-stranded DNA breaks” for “at 25 uM”
# [13] = target: DNA topoisomerase 2-alpha (Homo sapiens) (UniProt P11388); experiment: as §2, with “topoisomerase-2alpha” for “topoisomerase-2beta”
# [14] = target: DNA topoisomerase 2-alpha (Homo sapiens) (UniProt P11388); experiment: as §1, with “topoisomerase-2alpha” for “topoisomerase-2beta”, “by measuring concentration required to generate 10% double-stranded DNA breaks” for “at 25 uM”
# [15] = target: DNA topoisomerase 2-beta (Homo sapiens) (UniProt Q02880); experiment: Inhibition of recombinant human topoisomerase-2beta expressed in Saccharomyces cerevisiae assessed as stabilization of DNA-enzyme cleavage complex at 50 uM incubated for 6 mins followed by incubation in drug-free buffer by agarose gel electrophoresis method
# [16] = target: DNA topoisomerase 2-alpha (Homo sapiens) (UniProt P11388); conditions: 100 uM
# Description: Inhibition of recombinant human topoisomerase-2alpha expressed in Saccharomyces cerevisiae assessed as stabilization of DNA-enzyme cleavage complex at 100 uM incubated for 10 mins followed by incubation in drug-free buffer by agarose gel electrophoresis method
# [17] = target: DNA topoisomerase 2-alpha (Homo sapiens) (UniProt P11388); conditions: 100 uM; remark: listed apart in the source
# Description: Poison activity at recombinant human topoisomerase-2alpha expressed in Saccharomyces cerevisiae assessed as inhibition of DNA religation using single-stranded DNA at 100 uM incubated for 6 mins by agarose gel electrophoresis method
# Chain of DNA topoisomerase 2-alpha (Homo sapiens) (P11388 whole entry): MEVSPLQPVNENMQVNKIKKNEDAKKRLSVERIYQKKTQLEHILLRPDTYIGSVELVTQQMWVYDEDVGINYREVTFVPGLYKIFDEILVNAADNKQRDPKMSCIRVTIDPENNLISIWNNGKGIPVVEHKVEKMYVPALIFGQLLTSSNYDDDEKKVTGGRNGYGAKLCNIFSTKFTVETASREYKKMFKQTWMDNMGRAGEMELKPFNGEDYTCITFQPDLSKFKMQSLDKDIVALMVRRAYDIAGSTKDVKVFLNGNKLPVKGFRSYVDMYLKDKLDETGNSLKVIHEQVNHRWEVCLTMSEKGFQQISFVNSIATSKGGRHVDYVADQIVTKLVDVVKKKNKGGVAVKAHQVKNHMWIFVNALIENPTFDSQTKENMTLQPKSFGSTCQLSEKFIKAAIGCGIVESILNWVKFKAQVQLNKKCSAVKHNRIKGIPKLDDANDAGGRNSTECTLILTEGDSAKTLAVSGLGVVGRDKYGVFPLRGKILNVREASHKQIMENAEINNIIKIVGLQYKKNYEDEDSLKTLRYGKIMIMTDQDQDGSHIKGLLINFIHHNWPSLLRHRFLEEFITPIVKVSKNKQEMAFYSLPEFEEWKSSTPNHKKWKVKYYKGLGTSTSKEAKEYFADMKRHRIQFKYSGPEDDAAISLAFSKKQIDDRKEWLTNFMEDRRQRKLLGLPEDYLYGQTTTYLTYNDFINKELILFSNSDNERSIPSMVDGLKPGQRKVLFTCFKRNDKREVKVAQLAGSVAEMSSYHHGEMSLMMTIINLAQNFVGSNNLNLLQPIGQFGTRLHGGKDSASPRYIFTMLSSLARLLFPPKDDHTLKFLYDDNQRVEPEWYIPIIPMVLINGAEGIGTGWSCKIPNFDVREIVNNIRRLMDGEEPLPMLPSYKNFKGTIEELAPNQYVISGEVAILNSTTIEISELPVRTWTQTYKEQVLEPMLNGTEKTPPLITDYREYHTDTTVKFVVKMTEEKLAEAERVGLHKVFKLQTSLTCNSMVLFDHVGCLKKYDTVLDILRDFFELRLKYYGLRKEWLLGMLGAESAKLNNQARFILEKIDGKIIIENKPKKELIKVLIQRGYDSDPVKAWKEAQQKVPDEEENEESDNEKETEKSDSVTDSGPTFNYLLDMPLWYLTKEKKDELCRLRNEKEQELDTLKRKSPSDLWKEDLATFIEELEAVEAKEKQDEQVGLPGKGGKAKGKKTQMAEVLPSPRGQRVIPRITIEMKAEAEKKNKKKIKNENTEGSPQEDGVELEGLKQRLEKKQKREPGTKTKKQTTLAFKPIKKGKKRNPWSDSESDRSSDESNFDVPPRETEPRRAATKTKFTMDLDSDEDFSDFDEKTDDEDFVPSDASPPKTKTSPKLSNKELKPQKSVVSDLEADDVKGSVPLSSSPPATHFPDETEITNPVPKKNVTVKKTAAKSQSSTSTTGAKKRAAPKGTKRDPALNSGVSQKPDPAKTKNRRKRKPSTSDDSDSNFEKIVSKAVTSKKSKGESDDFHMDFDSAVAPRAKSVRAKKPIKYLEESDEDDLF
# Chain of DNA topoisomerase 2-beta (Homo sapiens) (Q02880 whole entry): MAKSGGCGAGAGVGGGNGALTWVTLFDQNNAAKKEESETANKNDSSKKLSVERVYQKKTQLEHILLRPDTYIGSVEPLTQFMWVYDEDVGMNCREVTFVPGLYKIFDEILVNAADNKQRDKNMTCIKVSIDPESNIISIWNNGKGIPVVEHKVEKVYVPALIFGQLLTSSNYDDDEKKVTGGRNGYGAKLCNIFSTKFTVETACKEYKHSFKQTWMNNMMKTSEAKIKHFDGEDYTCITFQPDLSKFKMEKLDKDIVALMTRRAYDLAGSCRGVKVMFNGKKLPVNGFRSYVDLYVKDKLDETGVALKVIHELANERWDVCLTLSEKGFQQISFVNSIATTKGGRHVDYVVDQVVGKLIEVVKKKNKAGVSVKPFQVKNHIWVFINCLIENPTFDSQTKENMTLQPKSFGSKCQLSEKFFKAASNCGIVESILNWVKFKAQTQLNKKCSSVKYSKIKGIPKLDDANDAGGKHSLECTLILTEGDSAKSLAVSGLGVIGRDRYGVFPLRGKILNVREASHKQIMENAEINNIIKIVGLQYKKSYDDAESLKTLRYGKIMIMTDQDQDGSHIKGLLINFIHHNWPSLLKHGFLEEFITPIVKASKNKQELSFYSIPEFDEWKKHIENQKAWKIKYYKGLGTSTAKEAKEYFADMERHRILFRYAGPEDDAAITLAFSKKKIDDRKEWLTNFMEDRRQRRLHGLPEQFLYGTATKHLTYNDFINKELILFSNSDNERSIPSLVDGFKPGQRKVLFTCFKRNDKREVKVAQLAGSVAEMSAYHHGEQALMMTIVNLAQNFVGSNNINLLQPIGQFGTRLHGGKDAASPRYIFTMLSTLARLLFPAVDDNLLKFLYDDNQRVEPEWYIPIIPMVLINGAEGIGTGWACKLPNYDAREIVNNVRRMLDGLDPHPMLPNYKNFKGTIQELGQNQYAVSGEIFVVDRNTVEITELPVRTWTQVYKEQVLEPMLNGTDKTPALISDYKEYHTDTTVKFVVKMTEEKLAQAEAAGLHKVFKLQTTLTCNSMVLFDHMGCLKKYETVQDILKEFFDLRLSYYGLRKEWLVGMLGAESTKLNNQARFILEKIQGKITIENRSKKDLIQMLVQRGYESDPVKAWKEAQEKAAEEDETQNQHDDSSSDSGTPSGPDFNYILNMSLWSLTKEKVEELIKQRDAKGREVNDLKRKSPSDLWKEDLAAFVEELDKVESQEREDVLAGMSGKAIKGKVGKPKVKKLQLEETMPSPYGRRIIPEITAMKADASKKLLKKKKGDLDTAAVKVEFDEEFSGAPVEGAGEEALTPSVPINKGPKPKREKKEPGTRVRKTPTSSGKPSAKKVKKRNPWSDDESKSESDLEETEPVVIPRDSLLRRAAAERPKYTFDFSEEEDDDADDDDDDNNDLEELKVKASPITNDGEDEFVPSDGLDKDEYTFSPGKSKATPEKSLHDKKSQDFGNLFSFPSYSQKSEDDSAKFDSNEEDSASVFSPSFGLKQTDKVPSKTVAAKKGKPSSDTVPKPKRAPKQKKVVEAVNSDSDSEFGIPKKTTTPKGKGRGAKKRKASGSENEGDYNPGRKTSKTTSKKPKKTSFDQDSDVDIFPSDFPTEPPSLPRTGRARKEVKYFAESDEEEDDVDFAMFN
SMILES,Activity [1],inhibition [2],fold change (FC) [3],inhibition [4],inhibition [5],fold change (FC) [6],inhibition [7],Activity [8],fold change (FC) [9],fold change (FC) [10],fold change (FC) [11],Activity [12],fold change (FC) [13],Activity [14],inhibition [15],inhibition [16],inhibition [17]
COc1cc([C@@H]2c3cc4c(cc3[C@@H](NC(=O)CNCCCNCCCCN)[C@H]3COC(=O)[C@H]23)OCO4)cc(OC)c1O,inactive,Active,7.69,Active,Active,6.8,Active,inactive,1.14,4.92,1.28,11 µM,1.52,54.1 µM,–,–,–
COc1cc([C@@H]2c3cc4c(cc3[C@@H](NC(=O)CNCCCNCCCNCCCN)[C@H]3COC(=O)[C@H]23)OCO4)cc(OC)c1O,inactive,Active,7.85,Active,Active,6.03,Active,inactive,1.17,2.21,1.52,8.1 µM,2.13,12.2 µM,–,–,–
COc1cc([C@@H]2c3cc4c(cc3[C@@H](O[C@@H]3O[C@@H]5CO[C@@H](C)O[C@H]5[C@H](O)[C@H]3O)[C@H]3COC(=O)[C@H]23)OCO4)cc(OC)c1O,–,–,–,–,Active,–,–,–,–,–,–,> 100 µM,–,> 100 µM,Active,Active,Active
COc1cc([C@@H]2c3cc4c(cc3[C@@H](NC(=O)CNCCCNCCCCNCCCN)[C@H]3COC(=O)[C@H]23)OCO4)cc(OC)c1O,inactive,Active,10.3,Active,Active,7.85,Active,inactive,0.92,2.68,1.49,4.3 µM,2.48,4.8 µM,–,–,–
CNCCCNCCCCNCCCNCC(=O)N[C@@H]1c2cc3c(cc2[C@@H](c2cc(OC)c(O)c(OC)c2)[C@H]2C(=O)OC[C@@H]21)OCO3,inactive,Active,8.36,Active,Active,6.51,Active,inactive,1.37,2.61,1.66,7.5 µM,2.16,13.2 µM,–,–,–
COc1cc([C@@H]2c3cc4c(cc3[C@@H](NC(=O)CNCCCOCCCCOCCCN)[C@H]3COC(=O)[C@H]23)OCO4)cc(OC)c1O,inactive,Active,2.9,Active,Active,3.13,Active,inactive,0.87,3.63,0.88,49.9 µM,0.9,98.9 µM,–,–,–
COc1cc([C@@H]2c3cc4c(cc3[C@@H](NC(=O)CNCCCNCCNCCCN)[C@H]3COC(=O)[C@H]23)OCO4)cc(OC)c1O,inactive,Active,4.66,Active,Active,4.54,Active,inactive,1.06,4.27,1.38,25.3 µM,1.93,20.5 µM,–,–,–
